In experiment [1] the test system is U34 enzymes. Put plainly: Dual luciferase (NanoLuc/Firefly) tRNA modification-sensitive codon translation assay in A549 cells. The class given is cell-based. As to conditions: A549 human lung cells; time and concentration series; six U34 codon (xAA) repeats upstream of NanoLuc, xAG upstream of FireflyLuc; FIG. 1g-h. As to the method:
(§1) In the preferred embodiment, the luminescence-based reporter system is the Nano-Glo® Dual-Luciferase® Reporter (NanoDLR™) Assay System commercially available from Promega. The medium may be removed and 40 microliters of complete cell culture medium may be added. The plate may be equilibrated at room temperature for 15 min. 40 microliters of ONE-Glo™ EX Reagent may be added for each well. The plates may be mixed and shaked and protected from light for 10 minutes. Then the luminescence may be read. 40 microliters of NanoDLR™ Stop and GloR Reagent may be freshly prepared and added to each well. The plates may be mixed and shaked and protected from light for 10 minutes. The luminescence may be read by any luminescence reader, preferably. The luminescence may be analyzed by calculating the Nanoluc/Firefly ratio.
(§2) Cells (MDA-MB231, M395 or A549) were stably transduced by the lentiviral system (pLV-Puro-hPGK) and 1:3 Mirus transfecting agent [Close et al, Mol Cell 2006].
(§3) Cells were culture in a suitable culture system in the presence of the candidate tRNA modification modulator.
(§4) Signals were detected by any luminescence reader, for example the TECAN Infinite M2000 Pro. Read time can be between 1 and 3 seconds with automatic attenuation.
(§5) No effect was seen using a construct lacking the codon repetitions (FIG. 1e). […]

The test system of experiment [2] is U34 enzymes. Put plainly: Dual luciferase (NanoLuc/Firefly) tRNA modification-sensitive codon translation assay in M395 cells. Type of experiment: cell-based. The following applies: M395 human primary melanoma cells; 250 nM for 24 hours; six U34 codon (xAA) repeats upstream of NanoLuc, xAG upstream of FireflyLuc; FIG. 1f. As for the experimental part:
as §1, §2, §3, §4, §5

Entries after “also recorded” stand apart in the source; their conditions may differ.

`CC(C)n1nc(-c2cc3cc(O)ccc3[nH]2)c2c(N)ncnc21` [PP242]: the luciferase specific signal result in the experiment with U34 enzymes [1] is “decreased luciferase specific signal in a time and concentration-dependent manner; also recorded: decreased luciferase specific signal in a time and concentration dependent manner”.
For the compound `Cn1c(=O)n(-c2ccc(C(C)(C)C#N)cc2)c2c3cc(-c4cnc5ccccc5c4)ccc3ncc21` [NVP-BEZ235], the luciferase specific signal entry in the experiment with U34 enzymes [1] is “decreased luciferase specific signal in a time and concentration-dependent manner; also recorded: decreased luciferase specific signal in a time and concentration dependent manner”.
Consider insulin, for which, in the experiment on U34 enzymes [2], the “luciferase specific ratio (NanoLuc/Firefly)” value is listed as “increased luciferase specific ratio”.

(Values after US20240376555A1, “TNRA MODIFICATION-SENSITIVE CODON TRANSLATION ASSAY COMPRISING LUMINESCENCE-BASED REPORTER SYSTEM” (priority 2021, published 2024).)
